# Reference: US11696917B2, “Agent enhancing antitumor effect using pyrazolo[3,4-d]pyrimidine compound” (TAIHO PHARMACEUTICAL CO., LTD., priority 2017, dated 2023)
# How the values were obtained:
# [1] = system: human stomach cancer cell line NCI-N87; assay: Combination of Compound 1 and capecitabine (in vivo), subcutaneous tumor in nude mice; set-up: species or system nude mouse (BALB/cAJcl-nu/nu); conditions: for T/C (%): Day 15
# Protocol: A human stomach cancer cell line NCI-N87 was obtained from American Type Culture Collection (ATCC). The cell line was cultured at 37° C. in a 5% CO2 incubator using RPMI-1640 (containing 4.5 g/L glucose, 10 mM HEPES, and 1 mM sodium pyruvate) (Wako Pure Chemical Industries, Ltd.) medium containing 10% fetal bovine serum (FBS).
# The NCI-N87 cells were resuspended at a concentration of 8×10^7 cells/mL in PBS.
# The cell suspension was subcutaneously transplanted in an amount of 8×10^6 cells/0.1 mL to the right chest of a 6-week-old nude mouse (BALB/cAJcl-nu/nu, CLEA Japan, Inc.) using a 1 mL syringe for tuberculin and a 25 G injection needle.
# Electronic calipers were used in tumor size measurement.
# [2] = system: Human stomach cancer cells 4-1st; assay: Combination of Compound 1 and trastuzumab (in vivo), subcutaneous tumor in nude mice; set-up: species or system nude mouse (BALB/cAJcl-nu/nu); conditions: for T/C (%): Day 15; for BWC (%) Day 15 Mean: mouse, in vivo, po
# Excerpt: Human stomach cancer cells 4-1st were obtained as fragment tumor from the Central Institute for Experimental Animals. Tumor was excised approximately one month after subcutaneous transplantation and passage in a nude mouse (BALB/cAJcl-nu/nu, CLEA Japan, Inc.), and prepared into a fragment of approximately 2 mm square. A transplantation needle was packed with one fragment and subcutaneously inserted from around the right most distal rib of a nude mouse. After entrance to the right back, the inner cylinder was pushed to eject and transplant the tumor. Electronic calipers were used in tumor size measurement, and the major axis and the minor axis of the tumor of each mouse were measured by sandwiching the tumor between the measuring surfaces of the electronic calipers (Days 0, 4, 8, 11 and 15). A tumor volume (TV) was calculated from the major axis and the minor axis. A relative tumor volume (RTV) and a rate of change in relative tumor volume (T/C) were calculated from the calculated tumor volume. TV, RTV, and T/C were calculated according to the following expressions. Tumor volume TV (mm^3)=(Major axis, mm)×(Minor axis, mm)×(Minor axis, mm)/2 Relative tumor volume RTV=(TV on the day of measurement)/(TV on the day of grouping) Rate of change in relative tumor volume T/C (%)=(Average RTV of an administration group)/(Average RTV of a control group)×100
# An electronic balance for animals was used in body weight measurement. A rate of change in body weight on day n (BWCn) was calculated from the body weight on day n (BWn) according to the following expression. Rate of change in body weight BWCn (%)=(BWn−BW0)/BW0×100
# Nude mice whose TV reached 100 to 300 mm^3 were selected, and six animals were assigned to each group by the equal number method (MiSTAT (ver. 2.0)) such that average TV was equalized among groups.
# The presence or absence of an effect of combined use and toxicity were determined from tumor sizes and body weights on the day of grouping (Day 0) and the day of evaluation (Day 15). During the administration period, the body weights were measured every day for the calculation of the amount of a dosing solution.
# [3] = system: SK-BR-3 (human breast cancer); assay: Combination of Compound 1 and other antitumor agents (in vitro), CellTiter-Glo, median effect method; assay type: cell-based
# Protocol: (§1) The supplier of each reagent, the suppliers of tumor cell lines, the media used, and the numbers of cells to be inoculated are shown in the tables below.
# (§2) The cells were inoculated at 20 μL/well to a 384-well culture plate (Corning Inc.). The plate inoculated with the cells were cultured in an incubator set to 37° C. and 5% CO2. On the day following inoculation, each of mixed solutions of Compound 1 and each other antitumor agent at varying combinations of concentrations was added to the cells. Specifically, 8 serial dilutions (including (0 nM)) of Compound 1 and 10 serial dilutions (including (0 nM)) of the other antitumor agent were prepared using Leibovitz's L-15 medium containing 10% FBS, or ATCC formulated RPMI-1640 medium containing 10% FBS. Drug solutions in which equal amounts of the respective serial dilutions of the compounds were dispensed were mixed at a ratio of 1:1 to prepare a total of 80 mixed drug solutions including every combination. Each of these mixed drug solutions was added at 5 μL/well (N=4) to the plate, followed by further culture for 3 days under conditions of 37° C. and 5% CO2.
# (§3) Three days later, CellTiter-Glo™ 2.0 Reagent (Promega Corporation) was added thereto at 25 μL/well, and chemiluminescence was measured using a plate reader (EnSpire® Multimode Plate Reader, PerkinElmer Japan Co., Ltd.).
# (§4) The enhancement of an effect by combined use of the drugs was evaluated according to a method known in the art (a method described in Trends Pharmacol. Sci., 4, 450-454, 1983 or Pharmacol Rev., 58 (3), 621-81, 2006).
# (§5) An average value from 4 wells of each combination was calculated from the obtained data, and a cell survival rate normalized against a control supplemented with a medium containing a vehicle was calculated. A Fa (fraction of affect) value was calculated by subtracting the cell survival rate from 1. Median effect analysis software CalcuSyn 2.0 (CalcuSyn, Inc.) for calculation by the median effect method was used in the calculation of CI.
# (§6) As for the combinations of the concentrations of both the drugs for calculating CI, a Fa value closer to 1 presumably means a concentration range in which one of the drugs had too strong an effect, and a Fa value closer to 0 presumably means a concentration range in which any of the drugs had too weak an effect. Since these concentration ranges were not appropriate for the discussion of a synergistic effect, combinations that satisfied 0.2 S Fa 0.8 were extracted from the combinations of the respective concentrations of Compound 1 and the other antitumor agent on the basis of the calculated Fa value.
# (§7) An effect of combined use was determined as shown in the table below (Pharmacol Rev., 58 (3), p. 621-81, 2006).
# [4] = system: KPL-4 (human breast cancer); assay: as above; assay type: cell-based
# Protocol: as §1, §2, §3, §4, §5, §6, §7
# [5] = Compound 1 15 mg/kg/day p.o. Days 1-14
# [6] = Compound 1 30 mg/kg/day p.o. Days 1-14
# [7] = Compound 1 7.5 mg/kg/day p.o. Days 1-14
# [8] = Compound 1 0.412 nM + Cisplatin 6185 nM, ratio 1:15030, SK-BR-3
# [9] = Compound 1 1.24 nM + Cisplatin 6185 nM, ratio 1:5010, SK-BR-3
# [10] = Compound 1 3.70 nM + Cisplatin 687 nM, ratio 1:186, SK-BR-3
# [11] = Compound 1 3.70 nM + Cisplatin 2062 nM, ratio 1:557, SK-BR-3
# [12] = Compound 1 3.70 nM + Cisplatin 6185 nM, ratio 1:1670, SK-BR-3
# [13] = Compound 1 68.6 nM + Paclitaxel 0.0229 nM, ratio 1:0.00033, KPL-4
# [14] = Compound 1 68.6 nM + Paclitaxel […], ratio 1:0.00011, KPL-4
# [15] = Compound 1 206 nM + Paclitaxel 0.617 nM, ratio 1:0.0030, KPL-4
# [16] = Compound 1 206 nM + Paclitaxel 1.85 nM, ratio 1:0.0090, KPL-4
# [17] = Compound 1 617 nM + Paclitaxel 1.85 nM, ratio 1:0.0030, KPL-4
# [18] = Compound 1 1852 nM + Paclitaxel 1.85 nM, ratio 1:0.0010, KPL-4
# [19] = Compound 1 5556 nM + Paclitaxel 1.85 nM, ratio 1:0.00033, KPL-4
# [20] = Compound 1 5556 nM + Paclitaxel 5.56 nM, ratio 1:0.0010, KPL-4
# [21] = Compound 1 16667 nM + Paclitaxel 1.85 nM, ratio 1:0.00011, KPL-4
# [22] = Compound 1 50000 nM + Paclitaxel 1.85 nM, ratio 1:0.000037, KPL-4
smiles,measurement,setting,value
"C=CC(=O)N1CCC[C@@H](n2nc(C(=O)Nc3ccc(CC(=O)N(C)C)c(C)c3C)c3c(N)ncnc32)C1 [Compound 1, (R)-1-(1-acryloylpiperidin-3-yl)-4-amino-N-(4-(2-(dimethylamino)-2-oxoethyl)-2,3-dimethylphenyl)-1H-pyrazolo[3,4-d]pyrimidine-3-carboxamide]",BWC (%) Day 15 Mean,[1]; [5],8.35%
same,RTV Day 15 Mean ± SD,[1]; [5],1.69 ± 0.39
same,T/C (%),[1]; [5],40.8%
same,BWC (%) Day 15 Mean,[1]; [6],6.43%
same,RTV Day 15 Mean ± SD,[1]; [6],0.67 ± 0.15
same,T/C (%),[1]; [6],16.3%
same,RTV Day 15 Mean + SD,[2]; [7],6.55 ± 0.37
same,T/C (%),[2]; [7],49.0%
same,RTV Day 15 Mean + SD,[2]; [5],3.77 ± 0.32
same,T/C (%),[2]; [5],28.2%
same,BWC (%) Day 15 Mean,[2]; 7.5 mg/kg/day,5.06%
same,BWC (%) Day 15 Mean,[2]; 15 mg/kg/day,0.82%
same,CI,[3]; [8],0.86
same,Fa,[3]; [8],0.50
same,CI,[3]; [9],0.84
same,Fa,[3]; [9],0.55
same,CI,[3]; [10],0.78
same,Fa,[3]; [10],0.22
same,CI,[3]; [11],0.79
same,Fa,[3]; [11],0.37
same,CI,[3]; [12],0.63
same,Fa,[3]; [12],0.65
same,CI,[4]; [13],0.03
same,Fa,[4]; [13],0.44
same,CI,[4]; [14],0.15
same,Fa,[4]; [14],0.32
same,CI,[4]; [15],0.50
same,Fa,[4]; [15],0.33
same,CI,[4]; [16],0.30
same,Fa,[4]; [16],0.52
same,CI,[4]; [17],0.31
same,Fa,[4]; [17],0.54
same,CI,[4]; [18],0.36
same,Fa,[4]; [18],0.55
same,CI,[4]; [19],0.48
same,Fa,[4]; [19],0.57
same,CI,[4]; [20],0.44
same,Fa,[4]; [20],0.78
same,CI,[4]; [21],0.38
same,Fa,[4]; [21],0.66
same,CI,[4]; [22],0.13
same,Fa,[4]; [22],0.86
